Data from PMC2632993, “Conformational changes in α7 acetylcholine receptors underlying allosteric modulation by divalent cations” (BMC Pharmacology, 2009).
“Also recorded” adds a separate entry of the source.

How the values were obtained:
Type in all cases: cell-based, chick
[1] = target: α7 AChR E^172C mutant (C^115A/L^247T background) (Gallus gallus, UniProt P22770, C138A/E195C/L270T); experiment: ACh dose-response, two-electrode voltage clamp in Xenopus oocytes
From the text: (§1) A cDNA clone of the chick α7 receptor containing two mutations (C^115A, L^247T) was used as the parental phenotype for mutations described in this study. We mutated the lone unpaired cysteine in the extracellular domain (C^115) to alanine to allow for a more straightforward interpretation of thiol modification experiments. […] We included the mutation of leucine 247 in the M2 transmembrane domain (L^247T; L9'T) because of its large current amplitudes and non-desensitizing kinetics compared to wild-type α7 receptors. […] All mutations were introduced by site-directed mutagenesis using the QuikChange method (Agilent Technologies, La Jolla, CA) as described previously, and were confirmed by DNA sequencing.
(§2) cRNA was prepared using the T7 RNA polymerase and mMessage mMachine kit as described by the manufacturer (Applied Biosystems, Austin, TX). Oocytes were surgically removed and prepared from female Xenopus laevis in accordance with UNC Institutional Animal Care and Use Committee guidelines. Oocytes were injected with 20 ng of cRNA and incubated at 18°C in ND96 (96 mM NaCl, 2 mM KCl, 1 mM MgCl2, 1.8 mM CaCl2, 5 mM Na pyruvate, 50 μg/ml gentamicin, 5 mM HEPES, pH 7.5) for 2–5 days before use. For some mutants we co-injected cRNA encoding the human RIC-3 [38], a protein shown to enhance expression of α7 AChRs in both mammalian cells and oocytes.
(§3) Oocytes were superfused in normal extracellular solution containing a reduced Ca^2+ concentration (ESLC; 96 mM NaCl, 2 mM KCl, 1 mM MgCl2, 0.1 mM CaCl2, and 10 mM HEPES, pH 7.5). […] Two-electrode voltage clamp was performed with a GeneClamp 500B controlled by pCLAMP8 software (Molecular Devices, Sunnyvale, CA). Electrodes were filled with 3 M KCl contacting Ag-AgCl wires and had resistances of 0.5 to 2.0 MΩ. Currents were recorded at a constant holding potential of -60 mV. Currents were low pass filtered at 50 Hz and sampled at 100 Hz. Agonist dose-response curves were obtained as described previously, and data were fit to the Hill equation using Origin software (Microcal Software, Northampton, MA).
(§4) MTSEA was prepared daily in distilled water and stored on ice. Stock solution was diluted to the appropriate working concentration in ESLC immediately before each application. […] To measure the effect of Ba^2+ on modification rates we pre-applied 10 mM Ba^2+ for 30 seconds prior to co-application of 10 mM Ba^2+ plus MTSEA. […] Kinetic data were analyzed as described previously; rate data were fit to a single exponential to extract a pseudo-first order rate constant; this was divided by the MTSEA concentration used to determine the second order rate constant for thiol modification.

[2] = target: α7 AChR E^44C mutant (C^115A/L^247T background) (Gallus gallus, UniProt P22770, C138A/E67C/L270T); experiment: as above
From the text: as §1, §2, §3, §4

[3] = target: α7 AChR M^37C mutant (C^115A/L^247T background) (Gallus gallus, UniProt P22770, C138A/L270T/M60C); experiment: as above; conditions: fraction of maximal ACh-evoked current evoked by 10 mM Ba^2+ in the absence of ACh
From the text: as §1, §2, §3, §4

[4] = target: α7 AChR M^40C/E^172Q mutant (C^115A/L^247T background) (Gallus gallus, UniProt P22770, C138A/E195Q/L270T/M63C); experiment: as above
From the text: as §1, §2, §3, §4

[5] = target: α7 AChR N^170C mutant (C^115A/L^247T background) (Gallus gallus, UniProt P22770, C138A/L270T/N193C); experiment: as above; conditions: co-expression with human RIC-3, fraction of maximal ACh-evoked current evoked by 10 mM Ba^2+ in the absence of ACh
From the text: as §1, §2, §3, §4

[6] = target: α7 AChR N^52C mutant (C^115A/L^247T background) (Gallus gallus, UniProt P22770, C138A/L270T/N75C); experiment: as above
From the text: as §1, §2, §3, §4

[7] = target: α7 C^115A/L^247T receptor (Gallus gallus, UniProt P22770, C138A/L270T); experiment: as above
From the text: as §1, §2, §3, §4

[8] = target: T1, α7 AChR M^40C mutant (C^115A/L^247T background) (Gallus gallus, UniProt P22770, C138A/L270T/M63C); conditions: fraction of maximal ACh-evoked current evoked by 10 mM Ba^2+ in the absence of ACh
T1 construct: expressed in transfected cells; host or cells: Xenopus laevis oocytes injected with cRNA
From the text: as §1, with “sequencing. […]” for “sequencing.”
Oocytes were superfused in normal extracellular solution containing a reduced Ca^2+ concentration (ESLC; 96 mM NaCl, 2 mM KCl, 1 mM MgCl2, 0.1 mM CaCl2, and 10 mM HEPES, pH 7.5). […] Currents were recorded at a constant holding potential of -60 mV. […]
MTSEA was prepared daily in distilled water and stored on ice. […] Kinetic data were analyzed as described previously; rate data were fit to a single exponential to extract a pseudo-first order rate constant; this was divided by the MTSEA concentration used to determine the second order rate constant for thiol modification.

[9] = co-expression with human RIC-3, fraction of maximal ACh-evoked current evoked by 10 mM Ba^2+ in the absence of ACh
[10] = fraction of maximal ACh-evoked current evoked by 10 mM Ba^2+ in the absence of ACh

[Ba+2].[Cl-].[Cl-] [Ba^2+, BaCl2]
positive allosteric modulation of ACh currents by Ba^2+ ([1]; 10 mM Ba^2+): no positive allosteric modulation | Ba^2+ efficacy [1, 9]: 0.02 | positive allosteric modulation of ACh currents by Ba^2+ ([2]; 10 mM Ba^2+): eliminated; also recorded: no positive allosteric modulation | Ba^2+ efficacy [2, 10]: 0.01 | Ba^2+ efficacy [3]: 0.2 | positive allosteric modulation of ACh currents by Ba^2+ ([4]; 10 mM Ba^2+): not positively modulated | Ba^2+ efficacy [4, 9]: 0.02 | Ba^2+ efficacy [5]: 0.03 | agonism by Ba^2+ in the absence of ACh ([6]; 10 mM Ba^2+): high partial agonism | Ba^2+ efficacy [6, 10]: 0.6 | decrease in ACh EC50 (leftward shift in the dose-response curve) caused by Ba^2+ ([7]; 10 mM Ba^2+): ~ 10 fold | Ba^2+ efficacy [7, 10]: 0.1 | Ba^2+ efficacy [8]: 0.1
